Data from ChEMBL document CHEMBL1201862, “PubChem BioAssay data set” (2004).
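Interpolation was linear, between the two tested concentrations surrounding the appropriate level; five concentrations were tested over 48 hours in 96-well plates. GI50 marks 50% less growth.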 Activity calls are given as the source filed them. Cut-off read from the data, not from the text of the source: active = GI50 up to about 1.1 µM and inactive = higher.

Columns and labels:
Test in all cases: inhibition of tumour cell growth, NCI panel, 48 h
[1] = system: 786-0
[2] = system: ACHN
[3] = system: CAKI-1
[4] = system: CCRF-CEM
[5] = system: HCT-116
[6] = system: LOX IMVI
[7] = system: M14
[8] = system: MOLT-4
[9] = system: NCI-H23
[10] = system: NCI-H522
[11] = system: OVCAR-8
[12] = system: RXF 393
[13] = system: SN12C
[14] = system: SR
[15] = system: SW-620
[16] = system: TK-10
[17] = system: UO-31
[18] = system: COLO 205
[19] = system: MDA-MB-231

Measured: GI50

COC(=O)C(=O)C(CC(=O)Nc1c(C)cccc1C)C(=O)OC (centres undefined)
inactive: [1] > 100 µM | [2] > 100 µM | [3] > 100 µM | [4] > 100 µM | [5] > 100 µM | [6] > 100 µM | [7] > 100 µM | [8] > 100 µM | [9] > 100 µM | [10] > 100 µM | [11] > 100 µM | [12] > 100 µM | [13] > 100 µM | [14] > 100 µM | [15] > 100 µM | [16] > 100 µM | [17] > 100 µM

Cc1ccc(C2=Nc3ccccc3[S+]([O-])C(c3ccc4c(c3)OCO4)C2)cc1 (centres undefined)
inactive: [1] 19.9 µM | [2] 20.3 µM | [3] 24.5 µM | [4] 26.2 µM | [18] 29.6 µM | [5] 16.6 µM | [6] 15.9 µM | [7] 17.6 µM | [8] 23.9 µM | [9] 15.3 µM | [10] 18.3 µM | [11] 20.5 µM | [12] 16.9 µM | [13] 17.4 µM | [14] 22.2 µM | [15] 18.5 µM | [16] 44.7 µM | [17] 40.8 µM

Nc1nncc2c1c(Br)cn2C1OC(CO)C(O)C1O (centres undefined)
inactive: [1] 21.1 µM | [2] 15.1 µM | [3] 3.21 µM | [4] 2.33 µM | [18] 48.6 µM | [5] 9.68 µM | [6] 5.74 µM | [7] 23.9 µM | [8] 2.91 µM | [9] 10.9 µM | [10] 31.3 µM | [11] 1.49 µM | [12] 30.8 µM | [13] 5.3 µM | [14] 2.99 µM | [15] 5.69 µM | [16] 51.4 µM | [17] > 37.9 µM

O=C(/C=C\c1ccccc1O)c1ccc(O)cc1O
inactive: [1] > 100 µM | [2] > 100 µM | [3] > 100 µM | [4] 87.7 µM | [18] 28.6 µM | [5] > 100 µM | [6] > 100 µM | [7] > 100 µM | [8] > 100 µM | [9] > 100 µM | [10] > 100 µM | [11] > 100 µM | [12] > 100 µM | [13] > 100 µM | [14] > 100 µM | [15] 10.8 µM | [16] > 100 µM | [17] > 100 µM

COc1cc2cccc(/N=C\c3ccccc3Cl)c2cc1OC
inactive: [1] > 100 µM | [2] > 100 µM | [3] > 100 µM | [4] 22.8 µM | [18] > 100 µM | [5] 80.7 µM | [6] 70.3 µM | [7] > 100 µM | [8] > 100 µM | [9] > 100 µM | [10] > 100 µM | [11] > 100 µM | [12] > 100 µM | [13] > 100 µM | [14] 3.94 µM | [15] 26.5 µM | [16] > 100 µM | [17] > 100 µM

CCOC(=O)N1N=NC2C3OC(C[C@@]3(C#N)OC(C)=O)[C@H]21 (some centres undefined)
inactive: [1] > 100 µM | [2] > 100 µM | [3] > 100 µM | [4] > 100 µM | [18] > 100 µM | [5] > 100 µM | [6] > 100 µM | [7] > 100 µM | [8] > 100 µM | [9] > 100 µM | [10] > 100 µM | [11] > 100 µM | [12] > 100 µM | [13] > 100 µM | [14] > 100 µM | [15] > 100 µM | [16] > 100 µM | [17] > 100 µM

C[N+](C)([O-])Cc1cccc(NC(=O)c2ccc(C(=O)Nc3cccc(C[N+](C)(C)[O-])c3)cc2)c1
inactive: [1] > 100 µM | [2] > 100 µM | [3] > 100 µM | [4] > 100 µM | [18] > 100 µM | [5] > 100 µM | [6] > 100 µM | [7] > 100 µM | [19] > 100 µM | [8] > 100 µM | [9] > 100 µM | [10] > 100 µM | [11] > 100 µM | [12] > 100 µM | [13] > 100 µM | [14] > 100 µM | [15] > 100 µM | [16] > 100 µM | [17] > 100 µM

C=C[C@]1(C)CCC2=C(CCC3C2(C)CCC[C@]3(C)CO)C1 (some centres undefined)
inactive: [1] 59.8 µM | [2] 69.2 µM | [3] 76 µM | [4] 33 µM | [18] 38.4 µM | [5] 35.6 µM | [6] 27.7 µM | [7] 75.5 µM | [8] 24.3 µM | [9] 50.4 µM | [10] 23 µM | [11] 60.5 µM | [12] 25.8 µM | [13] 20.2 µM | [14] 26.8 µM | [15] 63.8 µM | [16] > 100 µM | [17] 74 µM
